This assay has as its system M375 melanoma tumors. The experiment in a line: Mouse xenograft study. The format is in vivo. The note with it: M375 xenograft in SCID mice, selumetinib 30 mg/kg OG. The method, then: 8–10-week-old female severe immunodeficiency (SCID) mice were purchased from Charles River Laboratories. All procedures were performed under UK Home Office approved protocols and the University of East Anglia local guidelines. Experiments were conducted strictly in accordance with the locally approved animal handling protocol.
A total of 3 × 10^6 M375 melanoma cells were injected subcutaneously into 40 SCID mice. After approximately 4 weeks when the tumors were palpable, the mice were randomized into 4 arms. The 4 arms were; vehicle alone, leflunomide alone, selumetinib alone and leflunomide and selumetinib in combination. There were 10 mice in each arm. The drug regime was administered for 12 days. Leflunomide was administered by intraperitoneal (IP) injection daily at 7.5 mg/kg. Selumetinib was administered by oral gavage (OG) twice daily at 30 mg/kg for the first two days and was then delivered once daily thereafter. The tumor volume was measured every three days with calipers. Tumor volume was measured by the formula 0.52 (length × width^2). At the end of the experiment, the mice were culled and the excised tumors were weighed.

This is an account of results in article PMC5790502, “The anti-rheumatic drug, leflunomide, synergizes with MEK inhibition to suppress melanoma growth” (Oncotarget, 2017).

With `Cc1oncc1C(=O)Nc1ccc(C(F)(F)F)cc1` [Leflunomide, leflunomide], under “12 days, leflunomide 7.5 mg/kg IP daily, vs vehicle control”, the tumor volume entry is “did not reduce tumor volume”. The tumor weight result (excised at end of 12-day treatment, leflunomide 7.5 mg/kg IP) is recorded as “did not reduce the tumor volume or weight”.
